Measured values published in patent publication US20030143586A1, “Genetic hypermutability of plants for gene discovery and diagnosis” (priority 2001, published 2003).

Experiments:
[1] = system: Conyza canadensis field populations; conditions: cited from earlier work
[2] = system: horseweed (Conyza canadensis); assay: Glyphosate applied to horseweed plants to confirm sensitivity to the herbicide; format: in vivo
Procedure: Isolation and modification of the genomic DNA: Total horseweed (Conyza Canadensis) genomic DNA was isolated from 100 mg of leaves using Plant DNAZol as described by the manufacturer (Invitrogen). The typical yield was 10-20 μg DNA per preparation. Two different biotypes of horseweed were used as source of the DNA and were designated HR and HS.
Analysis of the DNA Marker: Horseweeds were either germinated from seeds or seedlings were transferred from the field into the greenhouse. DNAs from the genomes of HR and HS horseweeds were isolated. At the same time, glyphosate was applied at 2 lb active ingredient/acre rate to confirm the plants' sensitivity to the herbicide.

## O=C(O)CNCP(=O)(O)O [Glyphosate, glyphosate]
[1]
  field populations naturally resistant to glyphosate: approximately 15%
[2]; horseweed biotype designated HR (DNA source, Example 4)
  response to glyphosate treatment: tolerance
[2]; horseweed biotype designated HS (DNA source, Example 4)
  response to glyphosate treatment: sensitive
